Measurements taken from patent publication EP1961738A1, “New compounds with antiglutamatergic properties and uses thereof” (Faust Pharmaceuticals, priority 2007, dated 2008).

Test system: cerebrospinal fluid glutamate level
Assay: Intracerebroventricular retrodialysis in rats with enzymatic chemiluminescent glutamate determination in microdialysates
Format: in vivo, Sprague-Dawley rats
Description: For this example, intracerebroventricular retrodialysis was performed on rats according to techniques known to those skilled in the art. The analysis of microdialysates was performed according to Israël and collaborators' publication (Neurochem Int 22(1): 53-58, 1993). Procedures are described below:
Surgery was performed on adult male Sprague-Dawley rats weighing 330-340g at the time of surgery. Following induction of anaesthesia with intraperitoneal administration of ketamine/xylazine, animals were secured in a stereotaxic frame in the flat-skull position at a constant setting of -3.3mm between ear and incisor bars. After defining the "stereotaxic zero" in accordance with Paxinos and Watson's atlas (1986), a microdialysis guide cannula was directed towards the right lateral ventricle with the coordinates from Bregma: anteroposterior -0.8mm, mediolateral +1.5mm, and dorsoventral (DV) -1.5mm (CMA12 probe: 2mm membrane) (Khandewal et al., J Neurosci Methods 133(1-2): 181-189, 2004).
The guide cannula was fixed to the skull using dental cement and three stainless steel screws. […]
Samples were subsequently analysed for glutamate determination using an enzymatic assay (Israël et al., 1993). The procedure is based on the oxidation of L-glutamate […] with subsequent NADH production, the NADH being continuously evaluated using the photobacterium chemiluminescent reaction at 460-490nm. […]

NC(=O)NN=C1C=Cc2ccc(OCCN3CCOCC3)cc2C1=O [Example 13, 7-(2-morpholin-4-yl-ethoxy) naphtalene-1,2-dione2-semicarbazone]
response of cerebrospinal fluid glutamate level to the compound (rat C (one rat out of five), 30µM solution by retrodialysis for 40min): did not response | decrease of the cerebrospinal fluid glutamate level (rats A, B, D and E (four of five), 30µM solution by retrodialysis for 40min into right lateral ventricle, after 80 minutes, relative to baseline set at 100%): up to 50%
